Measured values from US11571418B2, “Platinum compounds that inhibit constitutive STAT3 signaling and induce cell cycle arrest and apoptosis of malignant cells” (H. LEE MOFFITT CANCER CENTER AND RESEARCH INSTITUTE, INC., priority 2011, dated 2023).

What was measured:
E2F1 = target: T1, E2F1 (Homo sapiens, UniProt Q01094); test: Non-STAT protein added to activated Stat3 before EMSA (titration of compound); assay type: binding
T1 construct: made in house; host or cells: Sf-9 insect cells infected with baculovirus
T1 sequence (Q01094 whole entry, species assumed): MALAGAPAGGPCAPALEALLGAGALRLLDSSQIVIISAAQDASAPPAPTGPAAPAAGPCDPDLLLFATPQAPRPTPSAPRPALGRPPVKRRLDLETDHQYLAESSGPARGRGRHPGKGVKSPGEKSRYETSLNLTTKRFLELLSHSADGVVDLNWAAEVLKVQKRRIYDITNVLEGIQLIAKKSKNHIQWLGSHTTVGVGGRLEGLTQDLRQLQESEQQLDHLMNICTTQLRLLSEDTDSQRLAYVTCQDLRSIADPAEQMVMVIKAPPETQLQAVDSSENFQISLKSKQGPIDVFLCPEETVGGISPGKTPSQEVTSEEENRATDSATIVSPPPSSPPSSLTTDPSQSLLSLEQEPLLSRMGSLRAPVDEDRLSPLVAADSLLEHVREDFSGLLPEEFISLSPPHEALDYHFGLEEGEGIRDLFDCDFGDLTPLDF

MDA-MB-453 [1] = test: Cell cycle analysis by BrdU labeling and flow cytometry; assay type: cell-based, human; conditions: no constitutively-active Stat3
Protocol: (§1) FIG. 6. Analysis of relative cellular DNA content using BrdU labeling and flow cytometry. Relative DNA content of human breast cancer cell lines following treatment with or without PLATINUM-401 was analyzed by BrdU incorporation and flow cytometry. The population of cells determined from the relative DNA content is shown in each panel for each treatment condition. Results are the representative of 3 independent determinations.
(§2) Cell proliferation and TUNEL assays—Proliferating cells were first treated with or without PLATINUM-401 for up to 48 h. A portion of cells were harvested for BrdU incorporation following the manufacturer's (BD Biosciences Pharmingen, San Diego, Calif.) instructions and analyzed by flow cytometry. Harvested cells were also analyzed for apoptosis via detection of TdT-mediated dUTP nick-end labeling (TUNEL) assay using Apoptosis Detection Systems Fluorescein according to the manufacturer's (Roche, Indianapolis, Ind.) instructions. Oligonucleotides and plasmids Transfections. The Stat3 antisense (5′-[…]-3′) (SEQ ID NO:3) or control mismatch oligonucleotides (5′-[…]-3′) (SEQ ID NO:4) were synthesized using phosphorothioate chemistry and were synthesized with 2′-Omethoxyethyl modification of the five terminal nucleotides (underlined; (Mora et al., 2002; Karras et al., 2000)) to increase stability. Transfections of Stat3AS and plasmids were carried out with Lipofectamine 2000 (LF) according to the manufacturer's instructions (Invitrogen, Carlsbad, Calif.). Briefly, cells were seeded at 1-2×10^6 cells/10-cm tissue-culture plates 18 h before transfection. Immediately before transfection, cells were washed once with PBS. Cells were transfected with luciferase reporters (4 μg) in the presence or absence of v-Src (4 μg), or were transfected with Stat3β (4 μg) or pRC/CMV Stat3 Flag (4 μg). […]
(§3) The inventors further examined the biological effects of PLATINUM-401 and determined whether any changes might correlate with the inhibition of constitutively-active Stat3. […]

MDA-MB-231 = test: as above; assay type: cell-based, human
Protocol: as §1, §2, §3

MDA-MB-453 [2] = test: Ki67 proliferation index by immunohistochemistry; assay type: cell-based, human; conditions: no persistent Stat3 activity
Protocol: FIGS. 5A and 5B. Evaluation for effects of PLATINUM-401 on cellular constitutive Stat3 activation and cell proliferation. Normal or malignant cells were treated with or without PLATINUM-401 and nuclear extracts were prepared for Stat3 DNA-binding activity assay with hSIE probe, or cells were processed for nuclear Ki67 immunohistochemistry. (FIG. 5A) EMSA analysis of Stat3 DNA-binding activity; (FIG. 5B) Graphical representations of quantified nuclear staining of Ki-67 proliferation index. Stat3:Stat3-DNA complexes in gels are labeled. The Ki-67 proliferation indexes were calculated as the percent positive tumor cells relative to the total number of cells. […]
Immunohistochemistry—The indirect peroxidase-antiperoxidase test was performed on cytospins prepared from cell lines (control and treated). […] The presence of Ki-67 nuclear staining was calculated as percent positive tumor cells in relation to the total number of cells.
as §3
Changes in cell proliferation induced by treatment with PLATINUM-401 were assayed in terms of Ki67 proliferation index by immunohistochemistry. The presence of Ki-67 nuclear staining was calculated as the percent positive tumor cells in relation to the total number of cells.

In the case of `CC(O)CN1CCN(CC(C)O)CC1` (centres unmarked) [PLATINUM-401], the “influence of E2F1 protein on compound's effect on Stat3 DNA-binding activity” value (E2F1) was “failed to significantly influence”, the cell cycle profile (MDA-MB-453 [1]) was “no significant change” and the cell cycle change (MDA-MB-231; BrdU, flow cytometry) was “arrested at G0/G1 phase”. For the same molecule, the S phase cells (MDA-MB-231; persists up to 48 h) was “significant decrease” and the “proliferation (Ki67 index)” value (MDA-MB-453 [2]) was “lack of effect”.
